Laboratory results from publication PMC7248897, “Synthesis, Biological Evaluation and In Silico Studies of Certain Oxindole–Indole Conjugates as Anticancer CDK Inhibitors” (Molecules, 2020).
Entries after “also recorded” stand apart in the source; their conditions may differ. Where two headings read alike, the source gives them in different places.

How the values were obtained:
CDK2 = molecular target: T1, CDK2 (Homo sapiens, UniProt P24941); assay: CDK2 kinase inhibition (Reaction Biology HotSpot); type: biochemical; conditions: single dose of 20 µM; read-out: % Enzyme Inhibitory Activity CDK2
T1 construct: purchased Reaction Biology Corp. (Kinase HotSpot service)
Excerpt: (§1) 5. CDK Kinase Inhibitory Activity
(§2) along with required cofactors.
(§3) Kinase activity data were
(§4) (dimethyl sulfoxide) reactions.

CDK9 = CDK9 (Homo sapiens, UniProt P50750); assay: CDK9 kinase inhibition (Reaction Biology HotSpot); conditions: read-out: % Enzyme Inhibitory Activity CDK9
Procedure: The in vitro CDK kinase inhibition assay was performed by Reaction Biology Corp. (PA, USA) (http://www.reactionbiology.com) Kinase HotSpotSM service.
Reaction Biology Corp. Kinase HotSpotSM service (http://www.reactionbiology.com)
was used for screening of tested compounds. CDK Kinase inhibitory activities were
assessed by the HotSpot assay platform, which contained specific kinase/substrate pairs
along with required cofactors. Base reaction buffer: 20 mM Hepes (pH 7.5), 10 mM MgCl2,
Testing compounds were dissolved in 100% DMSO to specific concentration. The serial
dilution was conducted by Integra Viaflo Assist in DMSO. The reaction mixture containing the examined compound and 33P-ATP was incubated at room temperature for
2 h and radioactivity was detected by filter-binding method. Kinase activity data were
expressed as the percent remaining kinase activity in test samples compared to vehicle

[1] = tested on: MCF-7 breast cancer cell line; assay: SRB anti-proliferative assay, MCF-7; type: cell-based, human; conditions: for IC50: Homo sapiens, read-out: IC50 MCF-7
Procedure: (§5) Cytotoxicity was assessed following the SRB colorimetric assay protocol, as reported earlier.
(§6) 1. Anti-proliferative action toward human breast cell lines […]
(§7) have been obtained from American Type Culture Collection (ATCC). The cells were maintained in Dulbecco's modified Eagle's medium (DMEM) supplemented with 10% heat inactivated fetal calf serum (GIBCO), penicillin (100 U/ml) and streptomycin (100 µg/ml) at 37 °C in humidified atmosphere containing 5% CO2. Cells at a concentration of […]
(§8) The anti-proliferative activity of the tested hybrids 6a-i, 9a-f and 11a, b was measured in vitro using the Sulfo-Rhodamine-B stain (SRB) assay. Briefly, Cells were inoculated in 96-well microtiter plate (5X104 cells/ well) for 24 h before treatment with the tested compounds to allow attachment of cell to the wall of the plate. Tested compounds were dissolved in DMSO at 1 mg/ml immediately before use and diluted to the appropriate volume just before addition to the cell culture. Different concentrations of tested compounds, doxorubicin and sorafenib were added to the cells (three wells were prepared for each individual dose). Cells were incubated with the compounds for 48 h at 37°C and in atmosphere of 5% CO2. After 48 h cells were fixed, washed, and stained for 30 min with 0.4% (w/v) SRB dissolved in 1% acetic acid. Unbound dye was removed by four washes with 1% acetic acid, and attached stain was recovered with Tris-EDTA buffer.
(§9) Color intensity was measured in an ELISA reader. […]

[2] = tested on: MDA-MB-231 breast cancer cell line; assay: SRB anti-proliferative assay, MDA-MB-231; type: cell-based, human; conditions: for IC50 / IC50 MDA-MB-231: mean ± S.D. from 3 separate experiments
Procedure: as §5, §6, §7, §8, §9

CDK4 = molecular target: T2, CDK4 (Homo sapiens, UniProt P11802); assay: CDK4 kinase inhibition (Reaction Biology HotSpot); type: biochemical; conditions: for inhibition at 20 µM: single dose of 20 µM
T2 construct: purchased Reaction Biology Corp. (Kinase HotSpot service)
Excerpt: as §1, §2, §3, §4

[3] = MCF7, SRB assay, 48 h, mean ± S.D. from 3 separate experiments
[4] = Homo sapiens, MDA-MB-231, SRB assay, 48 h, read-out: IC50 MDA-MB-231
[5] = Homo sapiens, MDA-MB-231, 48 h, read-out: IC50 MDA-MB-231, SRB assay, 48 h
[6] = SRB assay, 48 h, mean ± S.D. from 3 separate experiments

T2 sequence (P11802 whole entry): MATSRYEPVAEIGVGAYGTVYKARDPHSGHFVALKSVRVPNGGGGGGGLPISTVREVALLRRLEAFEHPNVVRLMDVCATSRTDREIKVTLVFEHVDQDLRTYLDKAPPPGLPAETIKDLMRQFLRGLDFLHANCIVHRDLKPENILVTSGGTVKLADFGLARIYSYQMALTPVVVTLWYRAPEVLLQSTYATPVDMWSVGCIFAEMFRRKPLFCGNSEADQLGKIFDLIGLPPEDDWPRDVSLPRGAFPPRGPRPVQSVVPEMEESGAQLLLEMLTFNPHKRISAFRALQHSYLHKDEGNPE
T2 sequence (P24385 whole entry partner): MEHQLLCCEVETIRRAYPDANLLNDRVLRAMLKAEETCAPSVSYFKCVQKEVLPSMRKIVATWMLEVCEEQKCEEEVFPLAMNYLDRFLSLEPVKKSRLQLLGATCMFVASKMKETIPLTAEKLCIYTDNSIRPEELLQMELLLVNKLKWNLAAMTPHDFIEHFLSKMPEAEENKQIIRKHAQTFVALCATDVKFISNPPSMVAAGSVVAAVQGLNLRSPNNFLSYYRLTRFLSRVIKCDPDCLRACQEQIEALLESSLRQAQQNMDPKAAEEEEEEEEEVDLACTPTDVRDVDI
Sequence of CDK9 (P50750 whole entry): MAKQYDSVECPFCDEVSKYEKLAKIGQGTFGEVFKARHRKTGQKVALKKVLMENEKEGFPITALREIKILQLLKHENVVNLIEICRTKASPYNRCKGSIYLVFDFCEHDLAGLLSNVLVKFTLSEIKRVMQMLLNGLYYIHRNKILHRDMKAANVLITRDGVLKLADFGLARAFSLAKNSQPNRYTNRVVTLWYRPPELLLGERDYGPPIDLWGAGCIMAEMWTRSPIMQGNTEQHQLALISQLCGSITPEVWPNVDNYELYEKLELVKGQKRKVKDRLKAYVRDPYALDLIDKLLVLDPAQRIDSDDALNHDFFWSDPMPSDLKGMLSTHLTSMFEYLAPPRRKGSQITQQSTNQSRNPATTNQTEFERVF
Sequence of CDK9 (O60563 whole entry partner): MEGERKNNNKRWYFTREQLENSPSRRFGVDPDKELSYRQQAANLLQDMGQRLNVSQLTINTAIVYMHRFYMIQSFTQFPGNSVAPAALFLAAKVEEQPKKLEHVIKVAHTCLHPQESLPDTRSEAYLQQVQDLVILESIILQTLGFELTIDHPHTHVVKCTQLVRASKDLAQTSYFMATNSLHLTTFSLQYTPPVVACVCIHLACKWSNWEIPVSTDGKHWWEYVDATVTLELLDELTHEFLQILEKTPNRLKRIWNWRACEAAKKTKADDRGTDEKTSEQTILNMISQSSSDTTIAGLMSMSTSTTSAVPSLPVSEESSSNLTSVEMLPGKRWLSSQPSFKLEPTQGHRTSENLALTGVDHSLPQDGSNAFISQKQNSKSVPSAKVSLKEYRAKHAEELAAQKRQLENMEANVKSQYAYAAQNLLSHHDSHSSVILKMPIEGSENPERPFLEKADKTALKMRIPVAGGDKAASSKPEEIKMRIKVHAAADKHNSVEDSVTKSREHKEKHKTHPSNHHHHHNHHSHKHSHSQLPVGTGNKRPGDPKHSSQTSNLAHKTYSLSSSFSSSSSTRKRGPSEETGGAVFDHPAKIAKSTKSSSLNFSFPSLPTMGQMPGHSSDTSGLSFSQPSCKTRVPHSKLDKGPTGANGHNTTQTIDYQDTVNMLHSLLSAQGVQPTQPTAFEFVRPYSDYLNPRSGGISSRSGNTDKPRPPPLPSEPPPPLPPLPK

| SMILES | inhibition at 20 µM (CDK2) [%] | inhibition at 20 µM (CDK9) [%] | IC50 [1, 3] [µM] | IC50 [2, 4] [µM] | inhibition at 20 µM (CDK4) [%] | other results |
| --- | --- | --- | --- | --- | --- | --- |
| O=C1Nc2ccccc2/C1=N/NC(=O)c1cc2ccccc2[nH]1 [6a] | 78 | 20 | 3.12 ± 0.14 | 15.1 ± 0.73 | 92 | IC50 (CDK4): 1.82 µM |
| O=C1Nc2ccc(F)cc2/C1=N/NC(=O)c1cc2ccccc2[nH]1 [6b] | 48 | 7 | 6 ± 0.32 | 6.36 ± 0.29 | 33 |  |
| O=C1Nc2ccc(Cl)cc2/C1=N/NC(=O)c1cc2ccccc2[nH]1 [6c] | ≥ 50 | 11 | 2.72 ± 0.17 | 9.48 ± 0.44 | 28 |  |
| O=C1Nc2ccc(Br)cc2/C1=N/NC(=O)c1cc2ccccc2[nH]1 [6d] | 85 | 32 | 3.31 ± 0.11 | 18.3 ± 0.71 | 43 |  |
| O=C1Nc2ccc(OC(F)(F)F)cc2/C1=N/NC(=O)c1cc2ccccc2[nH]1 [6g] | 14 | 4 | 5.07 ± 0.21 | 7.19 ± 0.38 | 19 |  |
| O=C1Nc2ccc([N+](=O)[O-])cc2/C1=N/NC(=O)c1cc2ccccc2[nH]1 [6h] | ≥ 50 | 10 | 21.4 ± 1.58 | 1.85 ± 0.07 | 46 | fold potency compared to staurosporine ([2]; MDA-MB-231, ratio of IC50 values): 5.56 fold |
| Cc1cc(C)c2c(c1)/C(=N/NC(=O)c1cc3ccccc3[nH]1)C(=O)N2 [6i] |  |  | 47.2 ± 3.02 | > 100 |  | IC50 MDA-MB-231 ([2]; SRB assay, 48 h): no activity |
| CN1C(=O)/C(=N\NC(=O)c2cc3ccccc3[nH]2)c2ccccc21 [9a] | 41 | 13 | 5.5 ± 0.28 | 8.39 ± 0.27 | 20 |  |
| CCCN1C(=O)/C(=N\NC(=O)c2cc3ccccc3[nH]2)c2ccccc21 [9b] |  |  |  |  |  | IC50 ([1]; MCF7, 48 h): 40.9 ± 3.17 µM; IC50 [2, 5]: 18.2 ± 0.85 µM; IC50 ([2]; read-out: IC50 MDA-MB-231, SRB assay, 48 h): 18.5 ± 0.85 µM |
| CCOC(=O)CN1C(=O)/C(=N\NC(=O)c2cc3ccccc3[nH]2)c2ccccc21 [9c] |  |  | 67.5 ± 3.02 | > 100 |  | IC50 MDA-MB-231 ([2]; SRB assay, 48 h): no anti-proliferative activity |
| O=C(N/N=C1\C(=O)N(Cc2ccccc2)c2ccccc21)c1cc2ccccc2[nH]1 [9d] |  |  |  |  |  | IC50 ([1]; MCF7, 48 h): 9.56 ± 0.61 µM; IC50 [2, 5]: 6.5 ± 0.39 µM |
| O=C(N/N=C1\C(=O)N(Cc2ccc(F)cc2)c2ccccc21)c1cc2ccccc2[nH]1 [9e] | 5 | 9 |  |  | 12 | IC50 ([1]; MCF7, 48 h): 3.7 ± 0.19 µM; IC50 [2, 5]: 1.03 ± 0.04 µM |
| CCCN1C(=O)/C(=N\NC(=O)c2cc3ccccc3[nH]2)c2cc(Cl)ccc21 [9f] |  |  |  |  |  | IC50 ([1]; MCF7, 48 h): 19.3 ± 0.65 µM; IC50 [2, 5]: 9.44 ± 0.35 µM |
| O=C(NN=C1Cc2ccccc2C1)c1cc2ccccc2[nH]1 [11a] |  |  | 84.7 ± 4.02 | > 100 |  | IC50 MCF-7 [1, 6]: did not exert any significant anti-proliferative action; IC50 MDA-MB-231 ([2]; SRB assay, 48 h): no activity; also recorded: did not exert any significant anti-proliferative action |
| O=C(N/N=C1\CCCc2ccccc21)c1cc2ccccc2[nH]1 [11b] |  |  | > 100 | > 100 |  | IC50 MCF-7 [1, 6]: did not exert any significant anti-proliferative action; IC50 MDA-MB-231 ([2]; SRB assay, 48 h): no activity; also recorded: did not exert any significant anti-proliferative action |
| CN[C@@H]1C[C@H]2O[C@@](C)([C@@H]1OC)n1c3ccccc3c3c4c(c5c6ccccc6n2c5c31)C(=O)NC4 [Staurosporine, reference compound] |  | 98 |  |  |  |  |
